Experimental findings from PMC4242536, “Cell Surface Protein Disulfide Isomerase Regulates Natriuretic Peptide Generation of Cyclic Guanosine Monophosphate” (PLoS ONE, 2014) are described below.

For test [1], the target named is T1, PDI full-length protein (Homo sapiens, UniProt P07237).
T1 construct: PDI full-length protein (Sigma, St. Louis, MO) was immobilized onto a CM5 sensorchip; purchased Sigma (St. Louis, MO)
The experiment in a line: Surface Plasmon Resonance binding to immobilized PDI (Biacore T200). To be noted: SPR, 25°C, pH 7.4. How it is done: SPR measurements were performed at 25°C on a Biacore T200 biosensor (GE Healthcare). PDI full-length protein (Sigma, St. Louis, MO) was immobilized onto a CM5 sensorchip using an amine coupling immobilization kit (GE Healthcare) as instructed by the supplier. After the chip was washed with Biacore running buffer (150 mM NaCl, and 0.005% (w/v) Polysorbate 20, 10 mM HEPES, pH 7.4), peptides ANP, BNP or CNP were injected at 40 ul/min for 30 s and allowed to dissociate for 150 s. Residual bound peptide was desorbed with 350 mM NaCl. Binding kinetics were derived from sensorgrams using Bioevaluation software version 4.1.1 (GE Healthcare).

In test [2] the test system is pig kidney epithelial cells (LLC-PK1). Briefly: Total cellular cGMP (BIOTRAK enzyme immunoassay) in LLC-PK1 cells stimulated by ANP. The format is cell-based. Here is the method:
(§1) Human umbilical vein endothelial cells (HUVECs), human aortic smooth muscle cells (HASMCs), and pig kidney epithelial cells (LLC-PK1) were purchased from American Type Culture Collection (ATCC) (Manassas, VA). HUVECs were cultured in endothelial growth medium (EGM-2) with supplements (Lonza, Hopkinton, MA). HASMCs were cultured in smooth muscle cells growth medium (SmBM) with supplements (Lonza). Primary human glomerular mesangial cells (HMCs) (Cell Systems Inc., Kirkland, WA) were grown in mesangial growth media with supplements (Cell Systems Inc.). LLC-PK1 cells were grown in Dullbecco's Modification of Eagle's Medium (DMEM) containing 10% FBS. All cell cultures were grown at 37°C in humidified 5% CO2 air. Primary cells from passage 3 to 7 were used in this study.
(§2) Total cellular cGMP was measured using the BIOTRAK cGMP enzyme immunoassay system Kit (GE Healthcare) as previously described. Briefly, cells were plated in 96-well plates and incubated overnight to reach 80% confluence. The cells were stimulated with different concentrations of synthetic natriuretic peptides dissolved in basic culture medium containing 0.5 mM IBMX for 30 minutes, then lysed. All samples were completed in triplicate for each experiment. The amount of cGMP was calculated from a standard curve that was generated in parallel. […]

Test [3] concerns HMCs, HASMCs, and HUVECs. Briefly: Total cellular cGMP in HMCs, HASMCs and HUVECs (summary over cells). It is filed as cell-based, human. How it is done:
(§3) Human umbilical vein endothelial cells (HUVECs), human aortic smooth muscle cells (HASMCs), and pig kidney epithelial cells (LLC-PK1) were purchased from American Type Culture Collection (ATCC) (Manassas, VA). HUVECs were cultured in endothelial growth medium (EGM-2) with supplements (Lonza, Hopkinton, MA). HASMCs were cultured in smooth muscle cells growth medium (SmBM) with supplements (Lonza). Primary human glomerular mesangial cells (HMCs) (Cell Systems Inc., Kirkland, WA) were grown in mesangial growth media with supplements (Cell Systems Inc.). LLC-PK1 cells were grown in Dullbecco's Modification of Eagle's Medium (DMEM) containing 10% FBS. All cell cultures were grown at 37°C in humidified 5% CO2 air. Primary cells from passage 3 to 7 were used in this study. Total cellular cGMP was measured using the BIOTRAK cGMP enzyme immunoassay system Kit (GE Healthcare) as previously described. Briefly, cells were plated in 96-well plates and incubated overnight to reach 80% confluence. The cells were stimulated with different concentrations of synthetic natriuretic peptides dissolved in basic culture medium containing 0.5 mM IBMX for 30 minutes, then lysed. All samples were completed in triplicate for each experiment. The amount of cGMP was calculated from a standard curve that was generated in parallel. […]

Test [4] deals with PDI. The experiment in a line: Diphtheria toxin sensitivity assay (cell survival) in HMCs. It is filed as cell-based, human. To be noted: DT 30 minutes then 72 hours, p<0.05, 3 independent experiments.
In test [5] the test system is human umbilical vein endothelial cells (HUVECs). Briefly: Total cellular cGMP (BIOTRAK enzyme immunoassay) in HUVECs stimulated by natriuretic peptides. It is filed as cell-based. The note with it: 30 minutes with NP, 0.5 mM IBMX, p ≤0.05 vs samples without bacitracin, 3 independent experiments in triplicate. How it is done: as §3
Test [6] relates to human aortic smooth muscle cells (HASMCs). The experiment in a line: Total cellular cGMP (BIOTRAK enzyme immunoassay) in HASMCs stimulated by natriuretic peptides. The note with it: 30 minutes with NP, 0.5 mM IBMX, p ≤0.05 vs samples without bacitracin, 3 independent experiments in triplicate. It is filed as cell-based. Here is the method: as §3
Test [7] has as its system GC-B. Briefly: Western blot of GC-B expression in HMCs. The note with it: HMCs with and without bacitracin. It is filed as cell-based, human. How it is done: as §1, with “study. Conventional western blotting was used to identify PDI in cellular proteins and was described previously.” for “study.”
Background: Immunoblotting shows a protein as a band on a membrane.

For test [8], the system named is human mesangial cells (HMCs). Briefly: Total cellular cGMP (BIOTRAK enzyme immunoassay) in HMCs stimulated by natriuretic peptides. It is filed as cell-based. How it is done: as §1, §2

T1 sequence (P07237 18-508, species assumed): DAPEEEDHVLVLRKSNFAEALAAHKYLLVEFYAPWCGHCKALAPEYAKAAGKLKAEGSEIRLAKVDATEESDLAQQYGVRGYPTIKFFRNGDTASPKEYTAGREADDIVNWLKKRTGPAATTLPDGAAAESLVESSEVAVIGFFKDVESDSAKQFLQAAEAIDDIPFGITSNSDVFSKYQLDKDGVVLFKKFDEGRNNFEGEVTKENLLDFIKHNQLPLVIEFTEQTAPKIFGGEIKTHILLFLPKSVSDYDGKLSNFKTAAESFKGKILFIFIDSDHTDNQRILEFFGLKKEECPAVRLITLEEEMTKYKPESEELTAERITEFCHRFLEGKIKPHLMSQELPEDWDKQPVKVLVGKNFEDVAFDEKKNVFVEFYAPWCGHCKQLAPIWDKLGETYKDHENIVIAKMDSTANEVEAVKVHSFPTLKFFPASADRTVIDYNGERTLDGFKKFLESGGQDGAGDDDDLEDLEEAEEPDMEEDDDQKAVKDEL

On to C-type natriuretic peptide [CNP], for which the “affinity for PDI (in words)” value in test [1] (compared with ANP and BNP, Fig. 5D) is given as “much lower affinity”.
For protein disulfide isomerase [PDI], in test [2] (LLC-PK1 cells, purified PDI added, compared with cells without PDI, second of two values (condition not given, Fig. 3C)), the “increase of ANP stimulated cGMP production” value is reported as 39%.
For `CC[C@H](C)[C@@H]1NC(=O)[C@H](CCCNC(=N)N)NC(=O)[C@H](CC(=O)O)NC(=O)[C@H](CCSC)NC(=O)[C@H](CCCCN)NC(=O)[C@H](CCCNC(=N)N)NC(=O)CNC(=O)[C@H](Cc2ccccc2)NC(=O)[C@@H](NC(=O)CNC(=O)[C@H](CO)NC(=O)CNC(=O)[C@H](CCC(N)=O)NC(=O)[C@@H](NC(=O)[C@H](CCSC)NC(=O)[C@H](CCCCN)NC(=O)[C@@H]2CCCN2C(=O)[C@@H](N)CO)C(C)C)CSSC[C@@H](C(=O)N[C@@H](CCCCN)C(=O)N[C@H](C(=O)N[C@@H](CC(C)C)C(=O)N[C@@H](CCCNC(=N)N)C(=O)N[C@@H](CCCNC(=N)N)C(=O)N[C@@H](Cc2c[nH]cn2)C(=O)O)C(C)C)NC(=O)CNC(=O)[C@H](CC(C)C)NC(=O)CNC(=O)[C@H](CO)NC(=O)[C@H](CO)NC(=O)[C@H](CO)NC(=O)[C@H](CO)NC1=O` [BNP, B-type natriuretic peptide], in test [1] (0–1600 nM ANP and BNP, 200 nM comparison of NPs), the “binding to immobilized PDI (in words)” value was “highest binding affinity with PDI and displayed dose-dependent increases in binding”.
bacitracin: the “dose dependence of the inhibitory effect on NP-mediated cGMP” value in test [3] (data not shown, HMCs, HASMCs and HUVECs) is reported as “dose dependent”. The “effect on NP cGMP generation compared to RL90 or siRNA knockdown” value in test [3] (in words) is reported as “greater effect”. In addition, the “cell survival on diphtheria toxin (inhibition of PDI-dependent DT toxicity)” value is reported as “inhibited PDI function” in test [4] and “increased cell survival significantly” in test [4] (listed as Bacitracin). In addition, the “attenuation of ANP, BNP, and CNP-mediated increases in cGMP” value is recorded as “significantly attenuated” in test [5]; “significantly attenuated” in test [6]; “significantly attenuated” in test [8] (HMCs, 30 minutes with NP, 0.5 mM IBMX, p ≤0.05 vs samples without bacitracin, 3 independent experiments in triplicate). The “inhibition of ANP-mediated increases in cGMP” value in test [2] (LLC-PK1 cells (no detectable PDI), p>0.05) was “did not inhibit”. Further, the “effect on GC-B expression” value in test [7] is “no difference in GC-B expression”. Besides, the “inhibitory effect on cGMP levels in the presence of protease inhibitors” value in test [8] (HMCs stimulated by ANP and CNP, with or without protease inhibitor cocktail, 3 independent experiments) was “did not lose its inhibitory effects on cGMP levels”.
